Source: patent US20100099681A1, “SUBSTITUTED 5-AMINOPYRAZOLES AND USE THEREOF” (BAYER SCHERING PHARMA AKTIENGESELLSCHAFT, priority 2008, published 2010)

Legend:
Type in all cases: cell-based
[1] = target: T1, adenosine receptor subtype A2a (Homo sapiens, UniProt P29274); experiment: Indirect determination of adenosine antagonism via gene expression (luciferase reporter), A2a; conditions: CHO K1 cells, CRE luciferase reporter; inhibition of luciferase response to agonist 30 nM NECA
T1 construct: expressed in transfected cells; host or cells: CHO K1
T1 sequence (P29274 whole entry): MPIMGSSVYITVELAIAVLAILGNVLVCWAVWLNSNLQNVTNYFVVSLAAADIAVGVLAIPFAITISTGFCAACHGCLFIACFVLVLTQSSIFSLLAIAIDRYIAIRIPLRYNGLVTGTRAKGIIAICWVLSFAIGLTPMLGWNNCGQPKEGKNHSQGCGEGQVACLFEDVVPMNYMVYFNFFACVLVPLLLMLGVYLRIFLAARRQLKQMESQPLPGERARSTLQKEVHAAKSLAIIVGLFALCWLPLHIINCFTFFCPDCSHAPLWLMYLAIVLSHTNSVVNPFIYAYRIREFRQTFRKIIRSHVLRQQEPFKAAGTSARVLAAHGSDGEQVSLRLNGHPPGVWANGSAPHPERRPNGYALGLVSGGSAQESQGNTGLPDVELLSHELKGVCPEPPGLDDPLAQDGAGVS
Excerpt: (§1) Cells of the permanent line CHO K1 (Chinese Hamster Ovary) are stably transfected with a reporter construct (CRE luciferase) and the cDNA for the adenosine receptor subtypes A2a or A2b. A2a or A2b receptors are coupled via Gαs proteins to adenylate cyclase. Through receptor activation, the adenylate cyclase is activated and therefore the cAMP level in the cell is increased. Via the reporter construct, a cAMP-dependent promoter, the change in the cAMP level is coupled to luciferase expression.
(§2) The permanent cell lines are cultured in DMEM/F12-Glutamax (Cat.No. 31331-028; Gibco) with 10% FCS (fetal calf serum) and various additives (10 ml/liter 1M HEPES (Cat.No. 15630; Gibco), 14 ml/liter MEM sodium pyruvate (Cat.No. 11360-039; Gibco) at 37° C. under 5% carbon dioxide, and split twice weekly.
(§3) For testing in the 384-well or 96-well plate format, the cells are sown at 2000 or 5000 cells/well in 25 or 50 μl/well test medium (OptiMEM-Glutamax with 2.5% activated-charcoal-treated FCS, Hyclone) and cultured at 37° C. under 5% carbon dioxide until substance testing. The A2a and A2b cells are sown, 24 h before substance testing, in OptiMEM with 2.5% activated-charcoal-treated FCS (Hyclone). The A1-Gα16 cells are sown, 48 h before substance testing, in OptiMEM-Glutamax with 2.5% activated-charcoal-treated FCS and additives. The substances are pipetted at a final concentration from 1×10^−5 M to 1×10^−11 M to the test cultures, with the DMSO content on the cells not exceeding 0.5%. NECA (5-N-ethyl-carboxamido-adenosine) at a final concentration of 30 nM, which roughly corresponds to the EC50 concentration, is used as agonist for the A2a and A2b cells. 25 nM CPA (N6-cyclopenty adenosine), which roughly corresponds to the EC7-5 concentration, is used as agonist for the A1-Ga16 cells. After adding the substances, the cell plates are incubated for 3-4 h at 37° C. under 5% carbon dioxide. Then 50 μl of a solution consisting to 50% of lysis reagent (Triton buffer, PAA Cat.No. T21-160) and to 50% of luciferase substrate solution (2.5 mM ATP, 0.5 mM luciferin, 0.1 mM coenzyme A, 10 mM Tricin, 1.35 mM magnesium sulfate, 15 mM DTT, pH 7.8) is added to the cells directly before measurement. The luciferase activity is detected with a luminescence reader. The IC50 values are determined, i.e. the concentrations at which the luciferase response, produced by the respective agonist, is inhibited to 50%. The IC50 values are calculated with the computer program GraphPad PRISM (Version 3.02). ZM241385, for the A2a and A2b cells, and DPCPX (1,3-dipropyl-8-cyclopentylxanthine), for the A1-Gα16 cells, are used as reference antagonist.

[2] = target: T2, adenosine receptor subtype A2b (Homo sapiens, UniProt P29275); experiment: Indirect determination of adenosine antagonism via gene expression (luciferase reporter), A2b; conditions: CHO K1 cells, CRE luciferase reporter; inhibition of luciferase response to agonist 30 nM NECA
T2 construct: expressed in transfected cells; host or cells: CHO K1
T2 sequence (P29275 1-332): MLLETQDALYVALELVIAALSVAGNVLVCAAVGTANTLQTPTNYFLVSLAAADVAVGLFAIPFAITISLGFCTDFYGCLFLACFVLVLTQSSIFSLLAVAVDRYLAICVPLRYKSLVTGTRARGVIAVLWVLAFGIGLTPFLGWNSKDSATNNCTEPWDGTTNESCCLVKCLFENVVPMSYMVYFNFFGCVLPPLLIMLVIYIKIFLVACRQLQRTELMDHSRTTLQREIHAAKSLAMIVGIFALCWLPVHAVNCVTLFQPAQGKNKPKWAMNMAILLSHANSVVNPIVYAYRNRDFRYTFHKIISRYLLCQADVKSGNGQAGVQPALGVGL
Excerpt: as §1, §2, §3

[3] = target: T3, adenosine receptor subtype A1 (A1-Gα16 fusion construct) (Homo sapiens, UniProt P30542); experiment: Indirect determination of adenosine antagonism via gene expression (luciferase reporter), A1; conditions: CHO K1 cells, NFAT-TA-Luc reporter, inhibition of luciferase response to agonist 25 nM CPA
T3 construct: expressed in transfected cells; host or cells: CHO K1
T3 sequence (P30542 with tags, fused parts or gaps): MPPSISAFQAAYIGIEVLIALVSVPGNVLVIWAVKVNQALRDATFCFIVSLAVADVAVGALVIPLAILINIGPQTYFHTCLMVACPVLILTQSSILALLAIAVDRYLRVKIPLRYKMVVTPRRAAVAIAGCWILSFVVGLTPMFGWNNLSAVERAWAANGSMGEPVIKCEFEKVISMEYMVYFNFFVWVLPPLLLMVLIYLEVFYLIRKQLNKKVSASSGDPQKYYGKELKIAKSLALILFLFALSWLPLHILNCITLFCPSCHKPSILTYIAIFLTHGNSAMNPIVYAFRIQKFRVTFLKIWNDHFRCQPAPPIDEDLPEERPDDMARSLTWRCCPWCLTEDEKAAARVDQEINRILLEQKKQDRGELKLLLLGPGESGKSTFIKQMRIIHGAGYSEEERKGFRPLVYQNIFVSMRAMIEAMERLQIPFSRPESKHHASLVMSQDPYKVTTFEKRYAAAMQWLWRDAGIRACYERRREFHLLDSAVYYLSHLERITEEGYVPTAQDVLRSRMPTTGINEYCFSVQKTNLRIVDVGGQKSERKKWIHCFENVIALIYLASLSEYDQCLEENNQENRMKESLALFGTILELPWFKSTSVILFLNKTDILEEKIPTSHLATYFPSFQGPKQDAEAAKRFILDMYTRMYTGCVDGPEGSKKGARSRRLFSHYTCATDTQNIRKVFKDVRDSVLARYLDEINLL
Experimental: For determination of adenosine antagonism on the adenosine receptor subtype A1, once again CHO K1 cells are stably transfected, but this time with a Ca^2+-sensitive reporter construct (NFAT-TA-Luc; Clontech) and an A1-Gα16 fusion construct. This receptor chimera is, in contrast to the native A1 receptor (Gαi-coupling), coupled to phospholipase C. The luciferase is expressed here as a function of the cytosolic Ca^2+ concentration.
as §2, §3

SMILES	IC50 [1] [µM]	IC50 [2] [µM]	IC50 [3] [nM]
Cc1ccccc1-n1nc(C)c(-c2ccc3nccnc3c2)c1Nc1ccc(Cl)cc1C(=O)O [Example 2, 2-{[4-(Quinoxalin-6-yl)-3-methyl-1-(2-methylphenyl)-1H-pyrazol-5-yl]amino}-5-chlorobenzoic acid]	> 10	> 10	1
Cc1ccccc1-n1nc(C(F)(F)F)c(-c2ccc3nccnc3c2)c1Nc1ccc(Cl)cc1C(=O)O [Example 6, 2-{[4-(Quinoxalin-6-yl)-1-(2-methylphenyl)-3-(trifluoromethyl)-1H-pyrazol-5-yl]amino}-5-chlorobenzoic acid]	> 10	> 10	9.5
COc1ccc(Nc2c(-c3ccc4[nH]ncc4c3)c(C)nn2-c2ccccc2C)c(C(=O)O)c1 [Example 9, 2-{[4-(1H-Indazol-5-yl)-3-methyl-1-(2-methylphenyl)-1H-pyrazol-5-yl]amino}-5-methoxybenzoic acid]	> 10	> 10	11.2
COc1ccc(Nc2c(-c3ccc4scnc4c3)c(C)nn2-c2ccccc2C)c(C(=O)O)c1 [Example 11, 2-{[4-(1,3-Benzothiazol-5-yl)-3-methyl-1-(2-methylphenyl)-1H-pyrazol-5-yl]amino}-5-methoxybenzoic acid]	> 10	> 10	11.7
CCc1ccc(Nc2c(-c3ccc4nccnc4c3)c(C)nn2-c2ccccc2C)c(C(=O)O)c1 [Example 13, 2-{[4-(Quinoxalin-6-yl)-3-methyl-1-(2-methylphenyl)-1H-pyrazol-5-yl]amino}-5-ethylbenzoic acid]	> 10	> 10	1
COc1ccc(Nc2c(-c3cc4nccnc4cc3F)c(C)nn2-c2ccccc2C)c(C(=O)O)c1 [Example 16, 2-{[4-(7-Fluoroquinoxalin-6-yl)-3-methyl-1-(2-methylphenyl)-1H-pyrazol-5-yl]amino}-5-methoxybenzoic acid]	> 10	> 10	1.6
COc1ccc(Nc2c(-c3ccc4ncnn4c3)c(C)nn2-c2ccccc2C)c(C(=O)O)c1 [Example 20, 5-Methoxy-2-{[3-methyl-1-(2-methylphenyl)-4-([1,2,4]triazolo[1,5-a]pyridin-6-yl)-1H-pyrazol-5-yl]amino}benzoic acid]	> 10	> 10	1.9
CCOc1ccccc1-n1nc(C)c(-c2ccc3nccnc3c2)c1Nc1ccc(OC)cc1C(=O)O [Example 22, 2-{[4-(Quinoxalin-6-yl)-1-(2-ethoxyphenyl)-3-methyl-1H-pyrazol-5-yl]amino}-5-methoxybenzoic acid]	> 10	> 10	1
Cc1ccccc1-n1nc(C)c(-c2ccc3cccnc3c2)c1Nc1ccccc1C(=O)O [Example 27, 2-{[4-(Quinolin-7-yl)-3-methyl-1-(2-methylphenyl)-1H-pyrazol-5-yl]amino}benzoic acid]	> 10	> 10	99
Cc1ccccc1-n1nc(C)c(-c2ccc3ncc(N(C)C)nc3c2)c1Nc1ccccc1C(=O)O [Example 28, 2-({4-[3-(Dimethylamino)quinoxalin-6-yl]-3-methyl-1-(2-methylphenyl)-1H-pyrazol-5-yl}amino)benzoic acid]			19
Cc1ccccc1-n1nc(C)c(-c2cc3nccnc3c(F)c2OCCO)c1Nc1ccccc1C(=O)O [Example 31, 2-({4-[8-Fluoro-7-(2-hydroxyethoxy)quinoxalin-6-yl]-3-methyl-1-(2-methylphenyl)-1H-pyrazol-5-yl}amino)benzoic acid]			42
COc1ccnc2ccc(-c3c(C)nn(-c4ccccc4C)c3Nc3ccccc3C(=O)O)cc12 [Example 32, 2-{[4-(4-Methoxyquinolin-6-yl)-3-methyl-1-(2-methylphenyl)-1H-pyrazol-5-yl]amino}benzoic acid]			78
Cc1ccccc1-n1nc(C)c(-c2cc(F)c3nccnc3c2)c1Nc1ccccc1C(=O)O [Example 33, 2-{[4-(8-Fluoroquinoxalin-6-yl)-3-methyl-1-(2-methylphenyl)-1H-pyrazol-5-yl]amino}benzoic acid]	> 10	> 10	0.6
Cc1nn(-c2ccccc2)c(Nc2ccccc2C(=O)O)c1-c1cc2nccnc2c(F)c1F [Example 36, 2-{[4-(7,8-Difluoroquinoxalin-6-yl)-3-methyl-1-phenyl-1H-pyrazol-5-yl]amino}benzoic acid]	> 10	> 10	0.7
Cc1ccccc1-n1nc(C)c(-c2ccn3nc(N)nc3c2)c1Nc1ccccc1C(=O)O [Example 39, 2-{[4-(2-Amino [1,2,4]triazolo[1,5-a]pyridin-7-yl)-3-methyl-1-(2-methylphenyl)-1H-pyrazol-5-yl]amino}benzoic acid]	> 10	> 10	1
Cc1ccccc1-n1nc(C)c(-c2cc(F)c3cncnc3c2)c1Nc1ccccc1C(=O)O [Example 43, 2-{[4-(5-Fluoroquinazolin-7-yl)-3-methyl-1-(2-methylphenyl)-1H-pyrazol-5-yl]amino}benzoic acid]	> 10	> 10	23
Cc1nn(-c2ccc(F)cc2F)c(Nc2ccccc2C(=O)O)c1-c1cc(F)c2nccnc2c1 [Example 46, 2-{[1-(2,4-Difluorophenyl)-4-(8-fluoroquinoxalin-6-yl)-3-methyl-1H-pyrazol-5-yl]amino}benzoic acid]	> 10	> 10	8.5
